Measurements from patent publication US20250375410A1, “COMPOUND FOR PREVENTING OR TREATING NONALCOHOLIC FATTY LIVER DISEASE AND COMPOSITION THEREOF” (SUNWAY BIOTECH CO., LTD., priority 2024, published 2025).
Marks after values point to notes of the source that are not given here.

How the values were obtained:
Format in all cases: in vivo, C57BL/6J mice
[1] = test system: nonalcoholic fatty liver mice induced by high-fat feed; assay: Liver weight and liver/body weight ratio in high-fat feed induced nonalcoholic fatty liver mice
Method: (§1) 1. Preparation of the Composition of the Present invention • (1) L008 and H008 groups: The composition is the red yeast rice of the present invention obtained by fermenting rice with the Monascus pilosus of the present invention as described in Embodiment 2. The daily dosage for adults in the L008 and H008 groups is 0.5 g/day and 2 g/day, containing 1.5 mg/day and 6 mg/day of monascinol (a compound having the structure of Formula (I)), respectively. • (2) Msol group: Monascinol (a compound having the structure of Formula (I)), with a daily dosage of 6 mg/day for adults.
(§2) The experiment used 7-week-old male C57BL/6J strain mice purchased from the National Laboratory Animal Center. The initial body weight was about 23 g, with 12 mice per group. They were housed at 60% relative humidity, room temperature 25±1° C., with a 12-hour light cycle (8:00-20:00). The experiment lasted for 22 weeks, during which food and water were provided ad libitum. Body weight, food intake, and water consumption were measured weekly.
(§3) The feeding dosage calculation was based on the experiment initial estimation method published by the U.S. Food and Drug Administration in 2005 (Estimating the maximum safe starting dose in initial clinical trials for therapeutics in adult healthy volunteers). Using a 60 kg adult as the standard, when conducting trials on higher experimental animals, the dosage conversion principle is to use 12.3 times the recommended daily intake per kilogram of human body weight (mg/kg bw/day) as the recommended daily intake per kilogram of mouse body weight. The calculation formula is as follows: […]
(§4) Embodiment 4 uses a high-fat feed to induce a nonalcoholic fatty liver animal model. The animal experiment lasted for 22 weeks. Animal test feed was prepared according to the formula of Research Diets (New Brunswick, NJ, USA) for D12450B and D12492. The grouping is as follows: • i. ND group: Normal animal group. • ii. HFD group: Control group, nonalcoholic fatty liver mice induced by high-fat feed. • iii. L008 group: Nonalcoholic fatty liver mice induced by high-fat feed and gavaged daily with red yeast rice powder, equivalent to 0.5 g of the red yeast rice of the present invention consumed daily by a 60 kg adult, containing 1.5 mg monascinol (a compound having the structure of Formula (I)). • iv. H008 group: Nonalcoholic fatty liver mice induced by high-fat feed and gavaged daily with red yeast rice powder, equivalent to 2 g of the red yeast rice of the present invention consumed daily by a 60 kg adult, containing 6 mg monascinol (a compound having the structure of Formula (I)). • v. […]

[2] = test system: nonalcoholic fatty liver mice induced by high-fat feed; assay: Serum liver function indices AST and ALT in high-fat feed induced nonalcoholic fatty liver mice
Method: as §1, §2, §3
Embodiment 4 uses a high-fat feed to induce a nonalcoholic fatty liver animal model. The animal experiment lasted for 22 weeks. […]
A biochemical auto-analyzer (Model Beckman-700, purchased from Fullerton, CA, USA) was used for detection. The items detected were: TC (Total Cholesterol), TG (Triglyceride), AST (Aspartate Aminotransferase) and ALT (Alanine Aminotransferase) activities.

[3] = test system: nonalcoholic fatty liver mice induced by high-fat feed; assay: Liver lipid extraction and measurement (TG, TC) in high-fat feed induced nonalcoholic fatty liver mice
Method: as §1, §2, §3
Embodiment 4 uses a high-fat feed to induce a nonalcoholic fatty liver animal model. The animal experiment lasted for 22 weeks. Animal test feed was prepared according to the formula of Research Diets (New Brunswick, NJ, USA) for D12450B and D12492. The grouping is as follows: • i. ND group: Normal animal group. • ii. HFD group: Control group, nonalcoholic fatty liver mice induced by high-fat feed. • iii. […]

[4] = test system: nonalcoholic fatty liver mice induced by high-fat feed; assay: Liver histopathology (H&E staining) assessment in high-fat feed induced nonalcoholic fatty liver mice
Method: as §1, §2, §3
Embodiment 4 uses a high-fat feed to induce a nonalcoholic fatty liver animal model. The animal experiment lasted for 22 weeks. Animal test feed was prepared according to the formula of Research Diets (New Brunswick, NJ, USA) for D12450B and D12492. The grouping is as follows: • i. ND group: Normal animal group. • ii. HFD group: Control group, nonalcoholic fatty liver mice induced by high-fat feed. • iii. L008 group: Nonalcoholic fatty liver mice induced by high-fat feed and gavaged daily with red yeast rice powder, equivalent to 0.5 g of the red yeast rice of the present invention consumed daily by a 60 kg adult, containing 1.5 mg monascinol (a compound having the structure of Formula (I)). • iv. H008 group: Nonalcoholic fatty liver mice induced by high-fat feed and gavaged daily with red yeast rice powder, equivalent to 2 g of the red yeast rice of the present invention consumed daily by a 60 kg adult, containing 6 mg monascinol (a compound having the structure of Formula (I)). • v. Msol group: Nonalcoholic fatty liver mice induced by high-fat feed and gavaged daily with monascinol (a compound having the structure of Formula (I)) powder, equivalent to 6 mg of monascinol (a compound having the structure of Formula (I)) powder consumed daily by a 60 kg adult.
In the 22nd week of the experiment, food was withheld for 12-14 hours before blood collection. […] The obtained blood samples were centrifuged at 4° C., 3,000×g for 15 minutes. The upper layer of blood was aliquoted into eppendorf tubes and stored at −80° C. The liver was weighed, and the second largest lobe was preserved in 10% pathological formalin. The remaining liver was washed with 0.9% physiological saline, and along with the kidneys, placed in zipper bags and stored at −80° C.
The liver was fixed in 10% formalin, dehydrated, and embedded in paraffin to make tissue sections. […]

[5] = test system: gut microbiota of nonalcoholic fatty liver mice; assay: Analysis of gut microbiota (full-length 16S sequencing) in nonalcoholic fatty liver mice; details: compared with the HFD group; L008, H008 and Msol groups
Method: as §4, with “iv.” for “iv. H008 group: Nonalcoholic fatty liver mice induced by high-fat feed and gavaged daily with red yeast rice powder, equivalent to 2 g of the red yeast rice of the present invention consumed daily by a 60 kg adult, containing 6 mg monascinol (a compound having the structure of Formula (I)). • v.”
(1) Extraction of Genomic DNA and PCR Amplification and Purification Total genomic DNA was extracted from samples (QIAamp PowerFecal DNA, Qiagen). DNA concentration was determined using a Qubit 4.0 fluorometer (Thermo Scientific) and adjusted to 1 ng/μL. […] PCR reactions were performed using KAPA HiFi HotStart ReadyMix (Roche): 95° C., 3 minutes; 20-27 cycles (sample-dependent): 95° C., 30 seconds, 57° C., 30 seconds, 72° C., 60 seconds; 72° C. for 5 minutes, and final storage at 4° C. PCR products were monitored on 1% agarose gel. […]

[6] = Msol group: monascinol 0.0012 g/kg bw/day by gavage, high-fat diet, 22 weeks, mean ± SD, n = 8
[7] = serum, Msol group: monascinol 0.0012 g/kg bw/day by gavage, high-fat diet, 22 weeks, mean ± SD, n = 8
[8] = lesion severity grade (0 to 4), Msol group: monascinol 0.0012 g/kg bw/day, high-fat diet, 22 weeks, mean ± SD, n = 8

In the case of Monascinol [Msol], the “Liver Weight” value [1, 6] is reported as 1.01 ± 0.06 ^a g, the “Liver/Body Weight” value [1, 6] is reported as 2.85 ± 0.24 ^a % and the “Effect on liver weight, in words” value ([1]; versus HFD group, p<0.05, various doses (L008 and H008 groups) and Msol) is reported as “significantly reducing liver weight”. For the same substance, the “Effect on liver/body weight ratio, in words” value ([1]; versus HFD group, various doses (L008 and H008 groups) and Msol) was “improving the liver/body weight ratio”, the “ALT Activity” value [2, 7] was 25.3 ± 3.4 ^a U/L and the “AST Activity” value [2, 7] was 60.6 ± 3.7 ^a U/L. The “Effect on serum AST and ALT activities, in words” value ([2]; versus HFD group, various doses (L008 and H008 groups) and Monascinol) was “significantly reduced AST and ALT activities”, the “Liver TC” value [3, 6] was 1.02 ± 0.32 ^ab mg/g and the “Liver TG” value [3, 6] was 7.25 ± 0.71 ^a mg/g. For the same substance, the “Effect on TC and TG in the liver, in words” value ([3]; versus HFD group, p<0.05) was “effectively reduced the accumulation of TC and TG in the liver”, the “Fatty change with macro-vesicles, multifocal” value [4, 8] was 0.3 ± 0.7 ^a and the “Fatty change with micro-vesicles, multifocal” value [4, 8] was 0.1 ± 0.4 ^a. For the same substance, the “Fatty change, general” value [4, 8] was 0.3 ± 0.7 ^a, the “Inflammation, granulomatous, multifocal” value ([4]; lesion severity grade (0 to 4), Msol group: monascinol 0.0012 g/kg bw/day, high-fat diet, 22 weeks, n = 8) was 0 ^a and the “Effect on accumulation of liver lipid droplets / fatty infiltration, in words (FIG. 7, Table 6)” value ([4]; versus HFD group, p<0.05) was “significantly improved the accumulation of liver lipid droplets and fatty infiltration”. For the same substance, the “Abundance of Blautia and Intestinimonas in the intestine, in words (FIG. 9)” value [5] was “increase the microbial populations of Blautia and Intestinimonas”.
